ChEMBL document CHEMBL5725612, “Pyridone FabI inhibitors and uses thereof” (2018)

Target: T1, Enoyl-[acyl-carrier-protein] reductase [NADPH] FabI (Staphylococcus aureus, UniProt Q6GI75)
T1 sequence (Q6GI75 whole entry): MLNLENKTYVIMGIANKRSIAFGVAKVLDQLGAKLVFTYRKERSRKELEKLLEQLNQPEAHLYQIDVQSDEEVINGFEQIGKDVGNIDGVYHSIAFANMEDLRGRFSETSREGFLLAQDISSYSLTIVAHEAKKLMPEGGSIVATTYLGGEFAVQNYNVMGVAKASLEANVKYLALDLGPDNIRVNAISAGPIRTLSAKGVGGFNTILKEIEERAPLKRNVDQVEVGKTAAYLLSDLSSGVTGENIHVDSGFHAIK
Assay: Tight-binding assay: Kinetics were performed on a Cary 100 spectrophotometer (Varian) at 20° C. Reaction velocities were measured by monitoring the oxidation of NAD(P)H to NAD(P)+ at 340 nm (Figure US10071965-20180911-P00001=6220 M−1 cm−1). For saFabI, the reaction mixture was identical to that described previously for progress curve experiments (Schiebel et al. (2012). Structure 20:802-13). For ecFabI, the final reaction mixture contained ecFabI (75 nM), trans-2-butenoyl-CoA (800 μM; Sigma and Advent Bio), NADH (300 μM; Sigma), NAD+ (400 μM; Sigma), and inhibitor (2 v/v % DMSO) in 50 mM potassium phosphate, pH 7.5, 150 mM NaCl, 8 v/v % glycerol. For InhA, the final reaction mixture contained InhA (100 nM), trans-2-octenoyl-CoA (200 μM), NADH (250 μM), NAD+ (200 μM), and inhibitor (2 v/v % DMSO) in 30 mM PIPES, pH 6.8, 150 mM NaCl, 1 mM EDTA, 8 v/v % glycerol. The resulting curves were fit to the Morrison and Walsh integrated rate equation (Equation 1) (Morrison et al.

Work on Oc1ccccc1Oc1ccccc1 yielded a Ki of 24.5 µM.
